Consider 2 compounds from PMC5786444, “Structural Basis for the Substrate Inhibition of Proline Utilization A by Proline” (Molecules : A Journal of Synthetic Chemistry and Natural …, 2017).

Series [1] addresses T1, Proline utilization A (BjPutA) (Bradyrhizobium diazoefficiens, UniProt Q89E26, R456M).
T1 construct: gene putA; BjPutA R456M mutant (GSALDH activity measured)
T1 sequence (Q89E26 1-999 R456M): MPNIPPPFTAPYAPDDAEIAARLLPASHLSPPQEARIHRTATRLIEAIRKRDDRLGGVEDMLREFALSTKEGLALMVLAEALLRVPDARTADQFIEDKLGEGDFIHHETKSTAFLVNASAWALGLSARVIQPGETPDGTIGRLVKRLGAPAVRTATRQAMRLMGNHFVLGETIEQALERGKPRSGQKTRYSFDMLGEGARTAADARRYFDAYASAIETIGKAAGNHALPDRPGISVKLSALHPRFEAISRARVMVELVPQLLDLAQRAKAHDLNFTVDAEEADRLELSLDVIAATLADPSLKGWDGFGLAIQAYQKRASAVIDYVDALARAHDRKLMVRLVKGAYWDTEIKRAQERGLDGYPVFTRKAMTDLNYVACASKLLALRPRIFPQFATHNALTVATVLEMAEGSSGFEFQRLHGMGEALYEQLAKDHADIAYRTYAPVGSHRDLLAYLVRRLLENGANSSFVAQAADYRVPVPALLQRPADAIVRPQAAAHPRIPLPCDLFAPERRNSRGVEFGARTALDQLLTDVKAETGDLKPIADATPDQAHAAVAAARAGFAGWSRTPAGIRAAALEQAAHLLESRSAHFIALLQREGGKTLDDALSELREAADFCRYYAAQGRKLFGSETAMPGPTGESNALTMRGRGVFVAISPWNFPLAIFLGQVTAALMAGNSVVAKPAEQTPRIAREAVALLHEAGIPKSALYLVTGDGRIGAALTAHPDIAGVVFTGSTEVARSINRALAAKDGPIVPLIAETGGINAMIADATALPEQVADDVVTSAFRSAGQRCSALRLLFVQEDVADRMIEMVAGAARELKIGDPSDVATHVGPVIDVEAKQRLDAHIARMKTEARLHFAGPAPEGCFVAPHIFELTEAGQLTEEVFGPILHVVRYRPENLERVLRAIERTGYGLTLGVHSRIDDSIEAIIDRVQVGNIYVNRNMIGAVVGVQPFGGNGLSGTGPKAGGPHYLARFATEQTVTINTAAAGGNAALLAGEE
Put plainly: steady-state GSALDH kinetics (NADH formation at […] nm), global fit to competitive inhibition. Type of series: biochemical.

Series [2] has as its target T2, Proline utilization A (BjPutA) (Bradyrhizobium diazoefficiens, UniProt Q89E26, C792A).
T2 construct: gene putA; BjPutA C792A; 1949 of 2002 expected residues modeled in the asymmetric unit (dimer)
T2 sequence (Q89E26 1-999 C792A): T1 sequence (Q89E26 1-999 R456M)
Put plainly: X-ray crystal structure, […] Å, crystals soaked in […] L-proline. Format: binding.

In series [3] the test system is T3, NC(CCC=O)C(=O)O.
T3 construct: BjPutA R456M mutant (GSALDH activity measured)
Briefly: purified protein. Type of series: biochemical, Bradyrhizobium diazoefficiens. Particulars: NAD+ GSAL site of the GSALDH active site.

Compound `O=C(O)[C@@H]1CCCN1` [L-proline] showed a Ki in series [1] of 46.3 mM. The “X-ray crystal structure, 2.15 Å, crystals soaked in 2 M L-proline” value in series [2] is “The carboxylate group interacts with Arg791, Ser793, and the backbone amine groups of Gly946 and Ala947”.

With “Proline utilization A (BjPutA) (Bradyrhizobium diazoefficiens USDA 110; R456M)”, the Km in series [3] is 2400 µM.

The term Ki denotes the dissociation constant of the complex between target and ligand, obtained from inhibition or displacement. A high value points to lower affinity. As usually defined, the Km is the concentration of substrate that gives half-maximal velocity.
